Reference: patent US11945824B2, “Heterocyclic compounds as anti-viral agents” (priority 2020, dated 2024)
Where two headings read alike, the source gives them in different places.

Columns and labels:
[1] = test system: Human RSV-A (“Long” strain); assay: RSV-A assay (CPE, ATPlite readout in Hep-2 cells); type: cell-based; conditions: human respiratory syncytial virus, read-out: Human RSV-A (“Long” strain) EC50
Source text: Hep-2 cells, (originally derived from tumors grown in irradiated-cortisonised weanling rats that had been injected with epidermoid carcinoma tissue from a person's larynx, but later found to be indistinguishable from HeLa cells by PCR DNA analysis), were used for the culturing of genotype A, “Long” strain RSV. Flasks were inoculated with RSV and viral stocks were collected once cytopathic effect (CPE) was greater than 90%. Viral stocks in 25% sucrose media were snap frozen using liquid nitrogen to increase viral stability. Viral stock titers were quantified by tissue culture infectious dose 50% (TCID50) using 8,000 cells per well and 3-fold viral dilutions across a 96-well plate, cultured for 4 days. Viral stock titers were also quantified by a plaque forming unit assay, as described elsewhere.
Following extensive parameter testing, the final assay is run as follows: Hep-2 cells are seeded into the inner 60 wells of a 96-well plate at 8,000 cells per well in a volume of 50 μL using Growth Media (DMEM without phenol red, 1% L-Glut, 1% Penn/Strep, 1% nonessential amino acids, 10% heat-inactivated FBS). 2-fold serial dilutions of control and test compounds are added to the wells in duplicate in a total volume of 25 μL. Viral stock is then added to the wells at a multiplicity of infection (MOI) of 0.1 in a volume of 25 μL, bringing the total volume of each well to 100 μL. The MOI is calculated using the PFU/mL, or TCID50 if unavailable. Each 96-well plate has a control column of 6 wells with cells and virus but no compound (negative control, max CPE), a column with cells but no compound or virus (positive control, minimum CPE), and a column with no cells or virus or compound (background plate/reagent control). The control wells with cells but no virus are given an additional 25 μL of growth media containing an equal quantity of sucrose as those wells receiving the viral stock in order to keep consistent in media and volume conditions. The outer wells of the plate are filled with 125 μL of moat media (DMEM, 1% Penn/Strep) to act as a thermal and evaporative moat around the test wells. Following a 5-day incubation period, the plates are read using ATPlite (50 uL added per well), which quantifies the amount of ATP (a measure of cell health) present in each well. Assay plates are read using the Envision luminometer. […] EC50 ranges are as follows: A<0.2 μM; B≥0.2 μM.

[2] = test system: rHMPV-GFP (recombinant HMPV CAN97-83, MPV-GFP1); assay: HMPV antiviral assay (eGFP fluorescence in Vero E6 cells); type: cell-based; conditions: human metapneumovirus, Vero C1008, 120 h, read-out: rHMPV-GFP EC50
Procedure: Method for HMPV Antiviral Assay
HMPV antiviral activity was evaluated using a recombinant version of HMPV CAN97-83 engineered to contain the coding sequence for enhanced green fluorescence protein (eGFP) in the 3′ end of the virus genome (MPV-GFP1, ViraTree). Vero E6 cells (ATCC #CCL-7) were seeded at a density of 12,000 cells/100 μL/well into 96-well cell plates (VENDOR) one day prior to the assay. On the day of screening, the cell culture medium was aspirated from the wells and cells were washed twice with serum-free Eagle's Modified Essential Medium (EMEM, ATCC #) containing 1% penicillin-streptomycin (Invitrogen) (SF-EMEM). Cell washes were performed by dispensing 100 μL SF-EMEM per well and immediately aspirating the wash medium from the well. Following the second wash step, serum-free OptiMEM (Invitrogen, Cat No.) (SF-OptiMEM) containing 0.5 μg/mL TPCK-Trypsin (VENDOR) and 1% penicillin-streptomycin was added to the cells at 50 μL/well. Compounds were added into the 96-well plates using a JANUS automated liquid handling system (VENDOR). Compounds were initially diluted 1:50 into an intermediate 96-well plate containing SF-OptiMEM prior to transfer to the assay plate (25 μL/well). Each of the test compounds were tested in duplicate wells at final concentrations starting from 8 μM or 2 μM using ½ stepwise dilutions for a total of 8 points. Virus infection was performed by preparing a working stock of MPV-GFP1 at a multiplicity of infection (MOI) equal to 0.05/25 μL and aliquoting 25 μL of virus inoculum to the compound and positive control wells. SF-OptiMEM was added (25 μL/well) to the appropriate wells to serve as a virus-free negative control for the assay. The final DMSO concentration of all wells is 0.5%. Plates were incubated at 32° C., 5% CO2 for 5 days. After 5 days incubation, eGFP fluorescence intensity was measured at […] using a Spectramax i3X plate reader (VENDOR).
Percent viral inhibition was calculated using the following equation: y=[[…](XQ/XP)]×100 Where XQ is the fluorescence intensity measured in a well containing recombinant MPV-GFP1-infected, compound-treated cells and XP is the average fluorescence intensity measured in the wells containing untreated cells infected with recombinant virus. EC50 values were then calculated by non-linear regression using a four-parameter curve logistic equation. The curve fit model employed was XLFit Dose Response One Site Model 200: y=(A+(B/(1+((x/C)^D)))) Where A is the minimum y value, B is the maximum y value, C is the log EC50 value, and D is the slope factor. The EC50 for each compound is listed in Table 2 and EC50 ranges are as follows: A<0.2 μM; B≥0.2 μM.

[3] = 120 h, Hep-2 cells, MOI 0.1, 5-day incubation, ATPlite

Row | SMILES | EC50 [1, 3] [nM] | EC50 [2] [nM] | EC50 ([1]; HEp-2, 120 h) [nM]
1 | COc1cc(C(=O)NC[C@](O)(c2cc3c(c(-c4ccc(F)cc4)n2)OC[C@@]3(n2ccnn2)C(F)(F)F)C(F)(F)F)ccc1OC1CC1 [Example 1, 4-cyclopropoxy-3-methoxy-N-((S)-3,3,3-trifluoro-2-((R)-7-(4-fluorophenyl)-3-(1H-1,2,3-triazol-1-yl)-3-(trifluoromethyl)-2,3-dihydrofuro[2,3-c]pyridin-5-yl)-2-hydroxypropyl)benzamide] | > 200 | > 200 | –
2 | COc1cc(C(=O)NC[C@](C)(O)c2cc3c(c(-c4ccc(F)cc4)n2)OC[C@@]3(n2cnnc2)C(F)(F)F)ccc1OC1CC1 [Example 2, 4-cyclopropoxy-N-((S)-2-((R)-7-(4-fluorophenyl)-3-(4H-1,2,4-triazol-4-yl)-3-(trifluoromethyl)-2,3-dihydrofuro[2,3-c]pyridin-5-yl)-2-hydroxypropyl)-3-methoxybenzamide] | < 200 | > 200 | –
3 | COc1cc(C(=O)NC[C@](O)(c2cc3c(c(-c4ccc(F)cc4)n2)OC[C@@]3(n2cnnc2)C(F)(F)F)C2CC2)ccc1OC1CC1 [Example 3, 4-cyclopropoxy-N-((S)-2-cyclopropyl-2-((R)-7-(4-fluorophenyl)-3-(4H-1,2,4-triazol-4-yl)-3-(trifluoromethyl)-2,3-dihydrofuro[2,3-c]pyridin-5-yl)-2-hydroxyethyl)-3-methoxybenzamide] | – | > 200 | < 200
4 | COc1cc(C(=O)NC[C@](O)(c2cc3c(c(-c4ccc(F)cc4)n2)OC[C@@]3(n2ccnc2)C(F)(F)F)C2CC2)ccc1OC1CC1 [Example 4, 4-cyclopropoxy-N-((S)-2-cyclopropyl-2-((R)-7-(4-fluorophenyl)-3-(1H-imidazol-1-yl)-3-(trifluoromethyl)-2,3-dihydrofuro[2,3-c]pyridin-5-yl)-2-hydroxyethyl)-3-methoxybenzamide] | – | – | < 200
5 | COc1cc(C(=O)NC[C@](O)(c2cc3c(c(-c4ccc(F)cc4)n2)OC[C@]3(C)n2cnnc2)C(F)(F)F)ccc1OC1CC1 [Example 6, 4-cyclopropoxy-3-methoxy-N-((S)-3,3,3-trifluoro-2-((R)-7-(4-fluorophenyl)-3-methyl-3-(4H-1,2,4-triazol-4-yl)-2,3-dihydrofuro[2,3-c]pyridin-5-yl)-2-hydroxypropyl)benzamide] | < 200 | > 200 | –
6 | COc1cc(C(=O)NC[C@](O)(c2cc3c(c(-c4ccc(F)cc4)n2)OC[C@]3(C)n2cnnc2)C(F)(F)F)cc2cccnc12 [Example 7, 8-methoxy-N-((S)-3,3,3-trifluoro-2-((R)-7-(4-fluorophenyl)-3-methyl-3-(4H-1,2,4-triazol-4-yl)-2,3-dihydrofuro[2,3-c]pyridin-5-yl)-2-hydroxypropyl)quinoline-6-carboxamide] | > 200 | – | –
7 | COc1cc(C(=O)NC[C@](O)(c2cc3c(c(-c4ccc(F)cc4)n2)OC[C@]3(C)n2ccnc2)C(F)(F)F)cc2cccnc12 [Example 8, 8-methoxy-N-((S)-3,3,3-trifluoro-2-((R)-7-(4-fluorophenyl)-3-(1H-imidazol-1-yl)-3-methyl-2,3-dihydrofuro[2,3-c]pyridin-5-yl)-2-hydroxypropyl)quinoline-6-carboxamide] | < 200 | – | –
8 | COc1cc(C(=O)NC[C@](O)(c2cc3c(c(-c4ccc(F)cc4)n2)OC[C@]3(C)n2ccnc2)C(F)(F)F)ccc1OC1CC1 [Example 9, 4-cyclopropoxy-3-methoxy-N-((S)-3,3,3-trifluoro-2-((R)-7-(4-fluorophenyl)-3-(1H-imidazol-1-yl)-3-methyl-2,3-dihydrofuro[2,3-c]pyridin-5-yl)-2-hydroxypropyl)benzamide] | < 200 | > 200 | –
9 | COc1cc(C(=O)NC[C@](O)(c2cc3c(c(-c4ccc(F)cc4)n2)OC[C@]3(C)n2cccc2)C(F)(F)F)cc2cccnc12 [Example 10, 8-methoxy-N-((S)-3,3,3-trifluoro-2-((R)-7-(4-fluorophenyl)-3-methyl-3-(1H-pyrrol-1-yl)-2,3-dihydrofuro[2,3-c]pyridin-5-yl)-2-hydroxypropyl)quinoline-6-carboxamide] | > 200 | – | –
10 | COc1cc(C(=O)NC[C@](O)(c2cc3c(c(-c4ccc(F)cc4)n2)OC[C@]3(C)n2ccnn2)C(F)(F)F)ccc1OC1CC1 [Example 11, 4-cyclopropoxy-3-methoxy-N-((S)-3,3,3-trifluoro-2-((R)-7-(4-fluorophenyl)-3-methyl-3-(1H-1,2,3-triazol-1-yl)-2,3-dihydrofuro[2,3-c]pyridin-5-yl)-2-hydroxypropyl)benzamide] | < 200 | > 200 | –
11 | COc1cc(C(=O)NC[C@](O)(c2cc3c(c(-c4ccc(F)cc4)n2)OC[C@]3(C)n2cc(C3CC3)nn2)C(F)(F)F)ccc1OC1CC1 [Example 12, 4-cyclopropoxy-N-((S)-2-((R)-3-(4-cyclopropyl-1H-1,2,3-triazol-1-yl)-7-(4-fluorophenyl)-3-methyl-2,3-dihydrofuro[2,3-c]pyridin-5-yl)-3,3,3-trifluoro-2-hydroxypropyl)-3-methoxybenzamide] | < 200 | – | –
12 | COc1cc(C(=O)NC[C@](C)(O)c2cc3c(c(-c4ccc(F)cc4)n2)OC[C@]3(C)n2cnnc2)ccc1OC1CC1 [Example 13, 4-cyclopropoxy-N-((S)-2-((R)-7-(4-fluorophenyl)-3-methyl-3-(4H-1,2,4-triazol-4-yl)-2,3-dihydrofuro[2,3-c]pyridin-5-yl)-2-hydroxypropyl)-3-methoxybenzamide] | < 200 | > 200 | –
13 | COc1cc(C(=O)NC[C@](C)(O)c2cc3c(c(-c4ccc(F)cc4)n2)OC[C@]3(C)n2cnnc2)cc2cccnc12 [Example 14, N-((S)-2-((R)-7-(4-fluorophenyl)-3-methyl-3-(4H-1,2,4-triazol-4-yl)-2,3-dihydrofuro[2,3-c]pyridin-5-yl)-2-hydroxypropyl)-8-methoxyquinoline-6-carboxamide] | > 200 | – | –
14 | COc1cc(C(=O)NC[C@](O)(c2cc3c(c(-c4ccc(F)cc4)n2)OC[C@]3(C)n2cnnc2)C2CC2)ccc1OC1CC1 [Example 15, 4-cyclopropoxy-N-((S)-2-cyclopropyl-2-((R)-7-(4-fluorophenyl)-3-methyl-3-(4H-1,2,4-triazol-4-yl)-2,3-dihydrofuro[2,3-c]pyridin-5-yl)-2-hydroxyethyl)-3-methoxybenzamide] | < 200 | > 200 | –
15 | COc1cc(C(=O)NC[C@](O)(c2cc3c(c(-c4ccc(F)cc4)n2)OC[C@]3(C)c2nnn[nH]2)C(F)(F)F)cc2cccnc12 [Example 19, 8-methoxy-N-((S)-3,3,3-trifluoro-2-((S)-7-(4-fluorophenyl)-3-methyl-3-(1H-tetrazol-5-yl)-2,3-dihydrofuro[2,3-c]pyridin-5-yl)-2-hydroxypropyl)quinoline-6-carboxamide] | > 200 | – | –
